This is an account of results in patent US6462039B1, “Fungicidal benzoheterocyclyloxime” (Bayer Aktiengesellschaft, priority 1998, dated 2002).

In data set [1] the test system is Erysiphe graminis f.sp. hordei. Nature of the data set: Erysiphe test (barley)/protective. The format is in vivo. As to conditions: protective, application rate 250 g/ha, evaluation 7 days after inoculation. How it is done:
Erysiphe Test (Barley)/Protective Solvent: 25 parts by weight of N,N-dimethylacetamide Emulsifier: 0.6 part by weight of alkylaryl polyglycol ether To produce a suitable preparation of active compound 1 part by weight of active compound is mixed with the stated amounts of solvent and emulsifier and the concentrate is diluted with water to the desired concentration. To test for protective activity, young plants are sprayed with the preparation of active compound at the stated application rate. After the spray coating has dried on, the plants are dusted with spores of Erysiphe graminis f.sp. hordei. The plants are placed in a greenhouse at a temperature of approximately 20° C. and a relative atmospheric humidity of approximately 80% to promote the development of mildew pustules.

Data set [2] has as its system Erysiphe graminis f.sp. hordei. In words: Erysiphe test (barley)/curative. As to conditions: curative (sprayed 48 hours after inoculation), application rate 250 g/ha, evaluation 7 days after inoculation. The format is in vivo. How it is done: Erysiphe Test (Barley)/Curative Solvent: 25 parts by weight of N,N-dimethylacetamide Emulsifier: 0.6 part of weight of alkylaryl polyglycol ether To produce a suitable preparation of active compound 1 part by weight of active compound is mixed with the stated amounts of solvent and emulsifier and the concentrate is diluted with water to the desired concentration. To test for curative activity, young plants are dusted with spores of Erysiphe graminis f.sp. hordei. 48 hours after the inoculation, the plants are sprayed with the preparation of active compound at the stated application rate. The plants are placed in a greenhouse at a temperature of approximately 20° C. and a relative atmospheric humidity of approximately 80% to promote the development of mildew pustules.

The subject of data set [3] is Fusarium nivale (var. nivale). Nature of the data set: Fusarium nivale (var. nivale) test (wheat)/protective. The format is in vivo. The note with it: protective, application rate 250 g/ha, evaluation 4 days after inoculation. An excerpt: Fusarium Nivale (Var. Nivale) Test (Wheat)/Protective Solvent: 25 parts by weight of N,N-dimethylacetamide Emulsifier: 0.6 part by weight of alkylaryl polyglycol ether […] To test for protective activity, young plants are sprayed with the preparation of active compound at the stated application rate. After the spray coating has dried on, the plants are sprayed with a conidia suspension of Fusarium nivale (var. nivale).

The test system of another data set is Puccinia recondita. Nature of the data set: Puccinia test (wheat)/protective. The format is in vivo. The note with it: protective, application rate 250 g/ha, evaluation 10 days after inoculation. How it is done:
Puccinia Test (Wheat)/Protective Solvent: 25 parts by weight of N,N-dimethylacetamide Emulsifier: 0.6 part by weight of alkylaryl polyglycol ether […] To test for protective activity, young plants are sprayed with the preparation of active compound at the stated application rate. After the spray coating has dried on, the plants are dusted with a conidia suspension of Puccinia recondita. […] The plants are then placed in a greenhouse at a temperature of approximately 20° C. and a relative atmospheric humidity of 80% to promote the development of rust pustules.

Structures are written as SMILES. Where two headings read alike, the source gives them in different places.

Protocol for physchem: The logP values were determined in accordance with EEC Directive 79/831 Annex V. A8 by HPLC (gradient method, acetonitrile/0.1% aqueous phosphoric acid)

By chromatographic logP is commonly meant a lipophilicity value derived from retention on a column. In turn, `CCCn1nc(/C(C)=N\O)c2ccccc21` [(II-a-3)] gave a chromatographic logP in “physchem” of 2.55.
Molecule `CC(=O)c1cn(C(F)F)c2ccccc12` [(V-7)] displayed a chromatographic logP of 2.22.
As for `C/C(=N/O)c1nn(C(C)C)c2ccccc12` [(II-a-5)], the chromatographic logP in “physchem” turned out to be 2.72.
In turn, `CCn1cc(C(C)=O)c2ccccc21` [(V-2)] showed a chromatographic logP of 2.35.
Turning to `CC(=O)c1nn(C(F)F)c2ccccc12` [Example (V-1), 1-(1-difluoromethyl-1H-indazol-3-yl)-ethanone], the chromatographic logP stood at 2.67.
For the molecule `C=CCn1nc(C(C)=O)c2ccccc21` [(V-4)], the chromatographic logP stood at 2.53. This chromatographic logP and that of the molecule before are within 0.2 log units of each other.
On the same count and under the same terms, the result for `CC(=O)c1nn(C(C)C)c2ccccc12` [(V-5)] reads 2.98.
For the molecule `C/C(=N/O)c1cn(C(F)F)c2ccccc12` [(II-a-7)], in the data set “physchem”, the chromatographic logP was found to be 2.25.
In the data set “physchem”, `COc1ccc2c(/C(C)=N\O)nn(C)c2c1` [(II-a-6)] registered a chromatographic logP of 1.76.
For `CCCn1nc(C(C)=O)c2ccccc21` [(V-3)], the chromatographic logP came out at 2.81.
In turn, `COc1ccc2c(C(C)=O)nn(C)c2c1` [(V-6)] returned a chromatographic logP in the data set “physchem” of 1.99.
Turning to `CO/N=C(/C1=NOCCO1)c1ccccc1CO/N=C(\C)c1nn(C)c2ccccc12` [Example 1, O-{2-[(5,6-dihydro-[1,4,2]dioxazin-3-yl)-methoxyiminomethyl]-benzyl}1-(1-methyl-1H-indazol-3-yl)-ethanone-oxime], the efficacy (in data set [1]; in data set [2]; in data set [3]; with Puccinia recondita) was 100% in each case.
Regarding `C=CCn1nc(/C(C)=N\O)c2ccccc21` [(II-a-4)], in the data set “physchem”, the chromatographic logP turned out to be 2.28.
Still for that read-out and setting: the result for `CCn1nc(/C(C)=N\O)c2ccccc21` [(II-a-2)] reads 2.13.
